What all share (test): NADPH/GSH reductase-coupled HED assay, A340
Holding throughout (assay type): biochemical
Holding throughout (details): read-out: Km (HED); 0.5 mM GSH, 0.2 mM NADPH, yeast GSH reductase, 50 mM sodium phosphate pH 7.5, 50 mM NaCl, 25 °C

Test [1] has as its target cGrx2 (Clostridium Cys-containing Grx2) (Alkaliphilus oremlandii, UniProt A8MJH2).
Test [2] concerns the target cGrx1 (Clostridium selenoprotein Grx1) (Alkaliphilus oremlandii, UniProt A8MIN3, U13C).
The target in test [3] is eGrx1 (E. coli Grx1) (Escherichia coli, UniProt P68688).
Chain of eGrx1 (E. coli Grx1) (P68688 whole entry): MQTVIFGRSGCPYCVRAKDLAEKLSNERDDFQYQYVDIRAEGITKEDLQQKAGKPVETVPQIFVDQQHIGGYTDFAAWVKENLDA
The target in test [4] is cGrx2 (Clostridium Cys-containing Grx2) (Alkaliphilus oremlandii, UniProt A8MJH2, C15S).

The term Km denotes the concentration of substrate that gives half-maximal velocity. As for `OCCSSCCO` [hydroxyethyl disulfide], the Km in test [1] came out at 17.6 ± 5.6 mM; in test [2] it was 1.5 ± 0.8 mM; in test [3] it was 11.2 ± 2.2 mM; in test [4] it was 18.1 ± 4.5 mM.

The record behind these values is paper PMC3062254 (Molecular microbiology, 2011).
